The nature of this data set: Relative thermodynamic stability of crystalline forms. Conditions: compared with the previous known Form C. Format: physicochemical.

Each structure is given as a SMILES string.

As for `COc1ccc(C(CN(C)C)C2(O)CCCCC2)cc1.Cl` (stereo not shown) [Form B, 1-[(2-dimethylamino)-1-(4-methoxyphenyl)ethyl]cyclohexanol hydrochloride], the thermodynamic stability result is given as “thermodynamically more stable than the previous known Form C”.

The values are drawn from patent US7045661B2, “Crystalline forms of venlafaxine hydrochloride” (Ciba Specialty Chemicals Corporation, priority 2000, dated 2006).
